Measured values as given in the NIST ThermoML archive (doi:10.1016/j.fluid.2016.02.031).

Assays:
[1] = refractive index (Na D-line) (dimensionless); xn = mol fraction of the nth substance listed; conditions: 100 kPa, Liquid, Standard Abbe refractometry, x2 = 0
[2] = xn = mol fraction of the nth substance listed; conditions: 100 kPa, Liquid, x2 = 0; for viscosity: Concentric cylinders viscometry; for mass density: Vibrating tube method

CCC(C)=O [butanone] + c1ccncc1
Conditions	mass density, [2] [kg/m3]	refractive index, [1]	viscosity, [2] [mPa·s]
288.15 K	810.067	1.38157	0.4308
293.15 K	804.863	1.37901	0.4152
298.15 K	799.632	1.37642	0.3992
303.15 K	794.371	1.37386	0.3826
308.15 K	789.078	1.37125	0.3665
313.15 K	783.752	1.36857	0.3499
318.15 K	778.389	1.36589	0.3336
323.15 K	772.985	1.36315	0.3174
328.15 K	767.539	1.36042	0.3001
333.15 K	762.048	1.35746	0.2829

CCC(C)=O [butanone] + OCCCO
Conditions	mass density, [2] [kg/m3]	refractive index, [1]	viscosity, [2] [mPa·s]
288.15 K	810.067	1.38157	0.4308
293.15 K	804.863	1.37901	0.4152
298.15 K	799.632	1.37642	0.3992
303.15 K	794.371	1.37386	0.3826
308.15 K	789.078	1.37125	0.3665
313.15 K	783.752	1.36857	0.3499
318.15 K	778.389	1.36589	0.3336
323.15 K	772.985	1.36315	0.3174
328.15 K	767.539	1.36042	0.3001
333.15 K	762.048	1.35746	0.2829
